Patent publication US11033518B2, “Pharmaceutical composition containing niclosamide for treating axin-GSK3 interaction-related diseases” (BAOBAB PHARM CO., LTD., priority 2017, dated 2021)
Where two headings read alike, the source gives them in different places. Values belong to the compound of their own block, whether it stands above or below them. Ends that are not written are not given here.

Columns and labels:
[1] = relative to paclitaxel; cited from earlier work
recombinant GSK3 beta = molecular target: T1, recombinant GSK3 beta (Homo sapiens, UniProt P49841); assay: Surface plasma resonance (SPR) analysis; format: binding
T1 construct: His; made in house; host or cells: Sf9 insect cells; This is inferred: 'the purified recombinant GSK3 beta' points back to the protein of b91
T1 sequence (P49841 whole entry): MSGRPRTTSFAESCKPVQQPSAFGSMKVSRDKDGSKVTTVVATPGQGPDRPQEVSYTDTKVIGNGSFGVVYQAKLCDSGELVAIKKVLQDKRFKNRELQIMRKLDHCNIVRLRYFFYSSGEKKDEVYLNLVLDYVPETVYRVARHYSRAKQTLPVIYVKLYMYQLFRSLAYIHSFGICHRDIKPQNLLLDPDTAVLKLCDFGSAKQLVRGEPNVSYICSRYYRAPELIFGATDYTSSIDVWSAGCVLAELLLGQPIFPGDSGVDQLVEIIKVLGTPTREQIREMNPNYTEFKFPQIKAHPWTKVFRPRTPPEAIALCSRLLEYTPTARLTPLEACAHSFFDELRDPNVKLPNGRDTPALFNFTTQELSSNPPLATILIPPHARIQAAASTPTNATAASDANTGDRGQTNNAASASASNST
Protocol: In order to confirm whether niclosamide directly binds to GSK3, surface plasma resonance (SPR) analysis was conducted.
SPR was carried out using ProteOn™ XPR36 Protein Interaction Array system (Bio-Rad Laboratories, Inc., CA, USA), and the purified recombinant GSK3 beta was immobilized on ProteOn GLH sensor chip. The niclosamide or 19-mer wild-type Axin peptide or mutant peptide (VEPQKAAEEAIHRAEAVQR, mutation underlined) was diluted with phosphate-buffered saline+Tween 20+1% DMSO at different concentrations respectively, and then was flowed into the chip at a rate of 100 μl/min, and the result was analyzed by ProteOn Manager Software 2.0 using the standard Langmuir models for fitting kinetic data. The complex formation ratio was represented by an association constant (ka, in the unit of M−1s−1), and the complex decrement ratio was represented by a dissociation constant (kd, in the unit of s−1) as the following equilibrium equation 1.
The high-affinity interaction is represented by the low dissociation constant, and gradual cognition and binding with interactant (rapid “on rate,” or high ka), and stability of complex formation (slow “off rate,” or low kd) are equal to the equation KD=kd/ka.

Compound: CC[C@@H](C(=O)[C@@H](C)[C@@H](O)[C@H](C)[C@@H]1O[C@@H]([C@@H](CC)C(=O)O)CC[C@@H]1C)[C@H]1O[C@]2(C=C[C@@H](O)[C@]3(CC[C@@](C)([C@H]4CC[C@](O)(CC)[C@H](C)O4)O3)O2)[C@H](C)C[C@@H]1C [Salinomycin]
- potency in inhibiting cancer differentiation in proportion to paclitaxel [1]: up to 100 times

- Kd (recombinant GSK3 beta; immobilized GSK3 beta, read-out: Equilibrium dissociation constant, KD): 35 µM
Compound: CC[C@H](C)[C@H](NC(=O)[C@H](CC(C)C)NC(=O)[C@H](CCC(=O)O)NC(=O)[C@H](CCC(=O)O)NC(=O)[C@H](C)NC(=O)[C@H](Cc1ccccc1)NC(=O)[C@H](CCCCN)NC(=O)[C@H](CCC(N)=O)NC(=O)[C@@H]1CCCN1C(=O)[C@H](CCC(=O)O)NC(=O)[C@@H](N)C(C)C)C(=O)N[C@@H](Cc1c[nH]cn1)C(=O)N[C@@H](CCCNC(=N)N)C(=O)N[C@@H](CC(C)C)C(=O)N[C@@H](CCC(=O)O)C(=O)N[C@@H](C)C(=O)N[C@H](C(=O)N[C@@H](CCC(N)=O)C(=O)N[C@@H](CCCNC(=N)N)C(=O)O)C(C)C [wild-type Axin peptide, VEPQKFAEELIHRLEAVQR]

- Kd (recombinant GSK3 beta; immobilized GSK3 protein, read-out: binding to GSK3 (could not bind up to)): > 100 µM
Compound: VEPQKAAEEAIHRAEAVQR [mutant Axin peptide, VEPQKAAEEAIHRAEAVQR]
